Columns and labels:
[1] = ACMIA assay for tacrolimus on unknown samples known to contain endogeneous interfering substances
[2] = tested on: endogeneous binding proteins; assay: ACMIA assay for tacrolimus on spiked whole blood samples with and without SIRO displacing agent (free vs bound tacrolimus); format: in vitro ADME; settings: for Protein-Bound: +SIRO minus −SIRO; for +SIRO ng/mL (free plus bound tacrolimus): with SIRO displacer
Protocol: Testing is carried out using the DIMENSION® RxL analyzer, available from Siemens Healthcare Diagnostics Inc., Newark Del. The instrument is employed using ACMIA immunoassay technology. The ACMIA assay method is described in U.S. Pat. Nos. 7,186,518, 5,147,529, 5,128,103, 5,158,871, 4,661,408, 5,151,348, 5,302,532, 5,422,284, 5,447,870, and 5,434,051, the disclosures of which are incorporated herein in their entirety. In the embodiment of the ACMIA method used herein and discussed in more detail below, competition between tacrolimus analog on chrome particles and tacrolimus in patient samples for antibody for tacrolimus conjugated to an enzyme (the “conjugate”) is utilized to determine the amount of tacrolimus in patient samples. Conjugate that binds to the tacrolimus analog on chrome particles is removed by magnetic separation. The enzymatic activity from conjugate remaining in the supernatant is measured and is directly proportional to the amount of tacrolimus in the patient sample. In the ACMIA assay format employed, the enzymatic activity observed when testing a sample containing no tacrolimus is indicative of the amount of enzymatic activity that is not bound to active antibody (i.e., cannot bind tacrolimus on chrome particles). The enzymatic activity observed when no chrome particle is present is indicative of the total amount of enzymatic activity in the conjugate. These values can be used to estimate the percent of enzymatic activity bound to active antibody.
Tacrolimus-free whole blood pools are screened by running the above mentioned ACMIA assay to identify whole blood pools that are substantially free from endogenous interfering substances. The screening is carried out by examining the consistency of tacrolimus recoveries of the pools to the individual tacrolimus-free whole blood samples. If the recoveries of the majority of the tacrolimus-free whole blood samples are within the low end sensitivity of the assay when the pool is used as the tacrolimus-free calibrator, the pool is accepted as a matrix free from endogenous interfering substances. The pool is then used to make the tacrolimus calibrators (or standards) by spiking different amounts of pure tacrolimus into the pool. The calibrators (which are substantially free from endogenous interfering substances) are then employed to generated the relationship of [Z]=a[Y]+b during the method calibration, which is achieved by testing the calibrators in the presence and absence of a displacing agent (sirolimus). Both [Z] and [Y] are generated from the calibration. The [Z] values of the calibrators are generated by running the calibrators in the absence of the displacing agent (representing the free drug) and the [Y] values of the calibrators are generated by subtracting the [Z] value from the total drug measured in the presence of the displacing agent (representing the bound drug). Calibrators made from a whole blood pool that is substantially free from endogeneous interfering substances are selected for use in the experiments below.
The whole blood pool substantially free from endogeneous interfering substances identified above is used. Aliquots (100 mL) of the whole blood pool are spiked with various amounts of tacrolimus so that the resulting concentration of tacrolimus in the whole blood samples is 0, 2.8, 6.0, 11.9 and 31.3 ng/mL (samples I-V).
A set of samples I-V is treated as follows: To each sample is added a sirolimus (SIRO) displacing agent for displacing tacrolimus in the sample from endogeneous binding proteins. The formulation for the SIRO displacement solution is set forth in more detail in Table 1.
The samples are incubated at 37° C. for a period of 140 minutes in the presence of displacing agent to displace tacrolimus from endogeneous binding substances. […]

[3] = tested on: endogeneous binding proteins; assay: as above; format: in vitro ADME; settings: without SIRO
[4] = ACMIA assay for tacrolimus on unknown samples known to contain endogeneous interfering substances; settings: for Estimated True: [Y]+[Z]; for Free drug: [Z]=0.218[Y]+0.0981
Protocol: Testing is carried out using the DIMENSION® RxL analyzer, available from Siemens Healthcare Diagnostics Inc., Newark Del. The instrument is employed using ACMIA immunoassay technology. The ACMIA assay method is described in U.S. Pat. Nos. 7,186,518, 5,147,529, 5,128,103, 5,158,871, 4,661,408, 5,151,348, 5,302,532, 5,422,284, 5,447,870, and 5,434,051, the disclosures of which are incorporated herein in their entirety. In the embodiment of the ACMIA method used herein and discussed in more detail below, competition between tacrolimus analog on chrome particles and tacrolimus in patient samples for antibody for tacrolimus conjugated to an enzyme (the “conjugate”) is utilized to determine the amount of tacrolimus in patient samples. Conjugate that binds to the tacrolimus analog on chrome particles is removed by magnetic separation. The enzymatic activity from conjugate remaining in the supernatant is measured and is directly proportional to the amount of tacrolimus in the patient sample. In the ACMIA assay format employed, the enzymatic activity observed when testing a sample containing no tacrolimus is indicative of the amount of enzymatic activity that is not bound to active antibody (i.e., cannot bind tacrolimus on chrome particles). The enzymatic activity observed when no chrome particle is present is indicative of the total amount of enzymatic activity in the conjugate. These values can be used to estimate the percent of enzymatic activity bound to active antibody. The ACMIA assay for tacrolimus is as follows: 15 μL of a whole blood samples I-V from above (substantially free from endogeneous interfering substances and spiked with tacrolimus) is mixed with the SIRO displacement solution (Table 1) in a vessel on the DIMENSION® RxL analyzer. The whole blood is sampled from a standard cup by first mixing the blood with the ultrasonic sample probe. The mixing of whole blood sample with the SIRO displacement solution ensures the displacement of the bound tacrolimus molecules from their binding sites when the SIRO molecules are present. As a result, the signal generated from this assay is related to the amount of free tacrolimus analyte plus the amount of displaced tacrolimus analyte (bound analyte) in the sample. Anti-tacrolimus antibody-β-galactosidase conjugate (50 μL) is added next to each of the reaction vessels and the mixture is held for a period of time (10 to 15 minutes) and at a temperature of 43° C. to allow tacrolimus, if present, to react with the antibody reagent. Chrome particles with immobilized tacrolimus-CM0-DA10-Dexal are added (50 μL) to each of the reaction vessels and are allowed to bind un-bound conjugate. […] The tacrolimus-bound conjugate is detected by transferring the supernatant from each of the reaction vessels to a photometric cuvette and measuring the enzymatic rate of the conjugate in the presence of chlorophenol red-β-D-galactopyranoside (CPRG). The rate for each reaction vessel is measured bichromatically at 577 and 700 nm. The above ACMIA assay is then carried out on unknown samples known to contain endogeneous interfering substances. Samples are obtained from various hospitals and are identified as set forth in first column of Table 3 below. The concentration of bound tacrolimus [Y] is determined as described above. The equation [Z]=0.218[Y]+0.0981 with the values for “a” and “b” determined as discussed above for this ACMIA assay is used to determine a concentration of free tacrolimus [Z] in the samples. The estimated true total concentration of tacrolimus [X] in each sample is determined by adding [Y]+[Z].

C=CC[C@@H]1/C=C(\C)C[C@H](C)C[C@H](OC)[C@H]2O[C@@](O)(C(=O)C(=O)N3CCCC[C@H]3C(=O)O[C@H](/C(C)=C/[C@@H]3CC[C@@H](O)[C@H](OC)C3)[C@H](C)[C@@H](O)CC1=O)[C@H](C)C[C@@H]2OC [tacrolimus]
ng/mL − displacer ([1]; sample 864408): 25.4 ng/mL | ng/mL − displacer ([1]; sample Dussel): 12.2 ng/mL | ng/mL − displacer ([1]; sample FP15): 3.8 ng/mL | Protein-Bound ([2]; BV 2.8 ng/mL): 2.1 ng/mL | +SIRO ng/mL (free plus bound tacrolimus) ([2]; BV 2.8 ng/mL): 2.8 ng/mL | Protein-Bound ([2]; BV 6.0 ng/mL): 4.9 ng/mL | +SIRO ng/mL (free plus bound tacrolimus) ([2]; BV 6.0 ng/mL): 6.0 ng/mL | Protein-Bound ([2]; BV 11.9 ng/mL): 9.7 ng/mL | +SIRO ng/mL (free plus bound tacrolimus) ([2]; BV 11.9 ng/mL): 11.9 ng/mL | Protein-Bound ([2]; BV 31.3 ng/mL): 25.6 ng/mL | +SIRO ng/mL (free plus bound tacrolimus) ([2]; BV 31.3 ng/mL): 31.3 ng/mL | −SIRO ng/mL (free tacrolimus) ([3]; BV 2.8 ng/mL): 0.7 ng/mL | −SIRO ng/mL (free tacrolimus) ([3]; BV 6.0 ng/mL): 1.2 ng/mL | −SIRO ng/mL (free tacrolimus) ([3]; BV 11.9 ng/mL): 2.2 ng/mL | −SIRO ng/mL (free tacrolimus) ([3]; BV 31.3 ng/mL): 5.7 ng/mL | Bound drug ([4]; sample 09-238-057): 0.0 ng/mL | ng/mL + displacer ([4]; sample 09-238-057): 32.7 ng/mL | ng/mL − displacer ([4]; sample 09-238-057): 36.1 ng/mL | Estimated True ([4]; sample 09-238-057): 0.0 ng/mL | Free drug ([4]; sample 09-238-057): 0.0 ng/mL | Bound drug ([4]; sample 109): 0.0 ng/mL | ng/mL + displacer ([4]; sample 109): 16.4 ng/mL | ng/mL − displacer ([4]; sample 109): 21.3 ng/mL | Estimated True ([4]; sample 109): 0.0 ng/mL | Free drug ([4]; sample 109): 0.0 ng/mL | Bound drug ([4]; sample 864408): 2.3 ng/mL | ng/mL + displacer ([4]; sample 864408): 27.7 ng/mL | Estimated True ([4]; sample 864408): 2.9 ng/mL | Free drug ([4]; sample 864408): 0.6 ng/mL | Bound drug ([4]; sample Dussel): 2.3 ng/mL | ng/mL + displacer ([4]; sample Dussel): 14.4 ng/mL | Estimated True ([4]; sample Dussel): 2.9 ng/mL | Free drug ([4]; sample Dussel): 0.6 ng/mL | Bound drug ([4]; sample FP15): 7.1 ng/mL | ng/mL + displacer ([4]; sample FP15): 10.9 ng/mL | Estimated True ([4]; sample FP15): 8.7 ng/mL | Free drug ([4]; sample FP15): 1.6 ng/mL

— US9658218B2, “Determination of total analyte concentration” (Siemens Healthcare Diagnostics Inc., priority 2012, dated 2017)
